Reference: ChEMBL document CHEMBL4431353, “Optimization of a Series of Bivalent Triazolopyridazine Based Bromodomain and Extraterminal Inhibitors: The Discovery of (3R)-4-[2-[4-[1-(3-Methoxy-[1,2,4]triazolo[4,3-b]pyridazin-6-yl)-4-piperidyl]phenoxy]ethyl]-1,3-dimethyl-piperazin-2-one (AZD5153)” (J Med Chem, 2016)
≈ marks a conversion by molar mass, not a printed value.

Legend:
[1] = tested on: MM1.S; experiment: Growth inhibition of human MM1S cells after 72 hrs by alamar blue assay; type: functional
[2] = target: T1, Bromodomain-containing protein 3 (Homo sapiens, UniProt Q15059); experiment: Inhibition of human BRD3 bromodomain 1 expressed in bacterial expression system
T1 sequence (Q15059 whole entry): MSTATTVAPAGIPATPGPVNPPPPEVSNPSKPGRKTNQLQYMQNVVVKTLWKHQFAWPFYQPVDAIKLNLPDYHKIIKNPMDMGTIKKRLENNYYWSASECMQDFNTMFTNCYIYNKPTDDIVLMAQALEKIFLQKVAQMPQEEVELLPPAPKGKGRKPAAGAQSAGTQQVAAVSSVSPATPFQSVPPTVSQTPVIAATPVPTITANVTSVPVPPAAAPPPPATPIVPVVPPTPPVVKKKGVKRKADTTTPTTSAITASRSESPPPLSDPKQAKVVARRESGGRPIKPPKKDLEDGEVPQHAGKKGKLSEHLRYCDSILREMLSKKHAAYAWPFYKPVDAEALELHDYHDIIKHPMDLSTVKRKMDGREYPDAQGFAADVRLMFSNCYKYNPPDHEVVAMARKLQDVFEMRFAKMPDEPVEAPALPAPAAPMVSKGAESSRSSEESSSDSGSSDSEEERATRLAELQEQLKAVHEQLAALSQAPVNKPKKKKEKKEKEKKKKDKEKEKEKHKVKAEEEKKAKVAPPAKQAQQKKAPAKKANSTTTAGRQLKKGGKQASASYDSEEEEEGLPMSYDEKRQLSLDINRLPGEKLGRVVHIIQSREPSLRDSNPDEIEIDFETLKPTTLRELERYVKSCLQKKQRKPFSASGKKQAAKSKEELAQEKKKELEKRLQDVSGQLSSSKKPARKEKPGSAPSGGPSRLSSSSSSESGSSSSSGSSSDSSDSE

[3] = target: T2, Bromodomain-containing protein 9 (Homo sapiens, UniProt Q9H8M2); experiment: Inhibition of human BRD9 expressed in bacterial expression system
T2 sequence (Q9H8M2 whole entry): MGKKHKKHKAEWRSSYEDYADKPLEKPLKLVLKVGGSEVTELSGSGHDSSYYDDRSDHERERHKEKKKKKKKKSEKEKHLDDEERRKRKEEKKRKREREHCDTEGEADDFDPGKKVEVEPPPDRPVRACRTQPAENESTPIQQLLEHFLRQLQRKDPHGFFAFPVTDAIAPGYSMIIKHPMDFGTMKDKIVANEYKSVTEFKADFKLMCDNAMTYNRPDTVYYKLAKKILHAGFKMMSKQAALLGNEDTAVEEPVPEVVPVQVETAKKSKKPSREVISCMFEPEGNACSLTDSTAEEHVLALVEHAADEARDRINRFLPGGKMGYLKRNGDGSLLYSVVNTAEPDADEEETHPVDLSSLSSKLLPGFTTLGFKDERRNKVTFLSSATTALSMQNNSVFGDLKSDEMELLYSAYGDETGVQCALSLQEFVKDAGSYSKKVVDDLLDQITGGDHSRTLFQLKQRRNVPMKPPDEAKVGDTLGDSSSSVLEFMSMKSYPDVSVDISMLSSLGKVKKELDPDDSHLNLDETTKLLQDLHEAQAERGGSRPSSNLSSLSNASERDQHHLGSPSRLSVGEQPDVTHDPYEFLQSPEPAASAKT

[4] = target: T3, Bromodomain-containing protein 4 (Homo sapiens, UniProt O60885); experiment: Inhibition of BRD4 in human MM1S cells assessed as down regulation of c-Myc incubated for 16 hrs by flow cytometry; type: cell-based
[5] = target: T3, Bromodomain-containing protein 4; experiment: Inhibition of human BRD4 bromodomain 1 expressed in bacterial expression system
[6] = target: T4, Bromodomain-containing protein 2 (Homo sapiens, UniProt P25440); experiment: Inhibition of human BRD2 bromodomain 2 expressed in bacterial expression system
T4 sequence (P25440 whole entry): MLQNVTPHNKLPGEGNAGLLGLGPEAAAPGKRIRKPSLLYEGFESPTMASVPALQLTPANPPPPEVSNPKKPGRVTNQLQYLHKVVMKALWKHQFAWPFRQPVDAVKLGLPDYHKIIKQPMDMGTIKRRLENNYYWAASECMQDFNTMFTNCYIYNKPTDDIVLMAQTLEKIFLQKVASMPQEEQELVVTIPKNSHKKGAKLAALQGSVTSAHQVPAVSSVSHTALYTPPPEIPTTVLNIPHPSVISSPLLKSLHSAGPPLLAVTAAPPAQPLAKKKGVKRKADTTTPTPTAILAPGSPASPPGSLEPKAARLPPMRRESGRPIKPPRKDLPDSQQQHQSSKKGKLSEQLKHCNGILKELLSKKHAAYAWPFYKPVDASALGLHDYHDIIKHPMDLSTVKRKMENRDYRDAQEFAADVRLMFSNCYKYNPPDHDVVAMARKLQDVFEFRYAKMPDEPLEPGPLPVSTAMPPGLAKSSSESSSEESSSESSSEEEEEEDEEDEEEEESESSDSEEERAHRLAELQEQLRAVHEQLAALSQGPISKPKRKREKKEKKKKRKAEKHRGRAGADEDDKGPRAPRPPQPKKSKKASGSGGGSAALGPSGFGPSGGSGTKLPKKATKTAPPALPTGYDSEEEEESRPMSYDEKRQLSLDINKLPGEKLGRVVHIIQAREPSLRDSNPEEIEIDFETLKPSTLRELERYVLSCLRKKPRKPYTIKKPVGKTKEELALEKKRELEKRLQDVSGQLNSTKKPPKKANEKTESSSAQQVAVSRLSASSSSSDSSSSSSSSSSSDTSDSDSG

[7] = target: Transcription initiation factor TFIID subunit 1 (Homo sapiens, UniProt P21675); experiment: Inhibition of human TAF1 bromodomain 2 expressed in bacterial expression system
[8] = Intrinsic clearance in rat hepatocytes assessed per million cells; type: ADME, cell-based, Hepatocyte; conditions: read-out: CLH
[9] = tested on: MV4-11; experiment: Antitumor activity against human MV4-11 cells xenografted in SCID mouse assessed as tumor growth inhibition at 10 mg/kg, po administered daily through oral gavage for 14 days measured twice per week during compound dosing relative to control; type: functional; conditions: MV4-11, po, 336 h, read-out: TGI
[10] = Metabolic stability in hepatic microsomes; type: ADME, Liver, Microsome
[11] = Volume of distribution at steady state in rat; type: ADME; conditions: in vivo, read-out: Vdss
[12] = target: T3, Bromodomain-containing protein 4; experiment: Inhibition of BRD4 in human MCF7 cells assessed as down regulation of ERalpha after 18 to 24 hrs by Hoechst staining based cellomics arrayscan analysis; type: cell-based
[13] = Apparent permeability from apical to basolateral side in human Caco2 cells; type: ADME, cell-based; conditions: Caco-2
[14] = Toxicity in SCID mouse xenografted with human MV4-11 cells assessed as body weight loss at 10 mg/kg, po administered daily through oral gavage for 14 days relative to control; type: organism-based; conditions: in vivo, 336 h
[15] = Thermodynamic solubility of compound in pH 7.4 solution; type: physicochemical; conditions: buffer, read-out: Therm_solubility
[16] = target: T1, Bromodomain-containing protein 3; experiment: Inhibition of human BRD3 bromodomain 2 expressed in bacterial expression system
[17] = target: T3, Bromodomain-containing protein 4; experiment: Displacement of Alexa647-labeled JQ1 derivative from wild type BRD4 tandem domain (44 to 460 residues) (unknown origin) incubated for 1 hr by fluorescence polarization assay
[18] = Intrinsic clearance in dog hepatocytes assessed per million cells; type: ADME, cell-based, Canis lupus familiaris, Hepatocyte; conditions: read-out: CLH
[19] = Oral bioavailability in dog; type: ADME, organism-based, Canis lupus familiaris; conditions: in vivo
[20] = target: CREB-binding protein (Homo sapiens, UniProt Q92793); experiment: Inhibition of human CREBBP expressed in bacterial expression system
[21] = target: Bromodomain-containing protein 4 (Homo sapiens, UniProt O60885, N140A)
[22] = target: T5, Bromodomain testis-specific protein (Homo sapiens, UniProt Q58F21); experiment: Inhibition of human BRDT bromodomain 2 expressed in bacterial expression system
[23] = target: Bromodomain-containing protein 4 (Homo sapiens, UniProt O60885, N433A)
[24] = Plasma clearance in rat; type: ADME
[25] = Unbound fraction in human plasma; type: ADME, cell-free
[26] = target: T3, Bromodomain-containing protein 4; experiment: Inhibition of BRD4 in human LNCAP cells assessed as down regulation of nuclear AR level by immunofluorescence assay; type: cell-based
[27] = Volume of distribution at steady state in dog; type: ADME, Canis lupus familiaris; conditions: in vivo, read-out: Vdss
[28] = target: T4, Bromodomain-containing protein 2; experiment: Inhibition of human BRD2 bromodomain 1 expressed in bacterial expression system
[29] = target: T5, Bromodomain testis-specific protein; experiment: Inhibition of human BRDT bromodomain 1 expressed in bacterial expression system
[30] = Intrinsic clearance in human hepatocytes assessed per million cells; type: ADME, cell-based, Hepatocyte; conditions: read-out: CLH
[31] = tested on: Mus musculus; experiment: In vivo inhibition of BRD4 in SCID mouse xenografted with human MV4-11 cells assessed as free plasma concentration required to decrease c-Myc expression in tumor at 10 mg/kg, po administered as single dose measured after 8 hrs by qPCR method; type: functional
[32] = target: Transcription initiation factor TFIID subunit 1-like (Homo sapiens, UniProt Q8IZX4); experiment: Inhibition of human TAF1L bromodomain 2 expressed in bacterial expression system
Transcription initiation factor TFIID subunit 1-like, sequence (Q8IZX4 whole entry): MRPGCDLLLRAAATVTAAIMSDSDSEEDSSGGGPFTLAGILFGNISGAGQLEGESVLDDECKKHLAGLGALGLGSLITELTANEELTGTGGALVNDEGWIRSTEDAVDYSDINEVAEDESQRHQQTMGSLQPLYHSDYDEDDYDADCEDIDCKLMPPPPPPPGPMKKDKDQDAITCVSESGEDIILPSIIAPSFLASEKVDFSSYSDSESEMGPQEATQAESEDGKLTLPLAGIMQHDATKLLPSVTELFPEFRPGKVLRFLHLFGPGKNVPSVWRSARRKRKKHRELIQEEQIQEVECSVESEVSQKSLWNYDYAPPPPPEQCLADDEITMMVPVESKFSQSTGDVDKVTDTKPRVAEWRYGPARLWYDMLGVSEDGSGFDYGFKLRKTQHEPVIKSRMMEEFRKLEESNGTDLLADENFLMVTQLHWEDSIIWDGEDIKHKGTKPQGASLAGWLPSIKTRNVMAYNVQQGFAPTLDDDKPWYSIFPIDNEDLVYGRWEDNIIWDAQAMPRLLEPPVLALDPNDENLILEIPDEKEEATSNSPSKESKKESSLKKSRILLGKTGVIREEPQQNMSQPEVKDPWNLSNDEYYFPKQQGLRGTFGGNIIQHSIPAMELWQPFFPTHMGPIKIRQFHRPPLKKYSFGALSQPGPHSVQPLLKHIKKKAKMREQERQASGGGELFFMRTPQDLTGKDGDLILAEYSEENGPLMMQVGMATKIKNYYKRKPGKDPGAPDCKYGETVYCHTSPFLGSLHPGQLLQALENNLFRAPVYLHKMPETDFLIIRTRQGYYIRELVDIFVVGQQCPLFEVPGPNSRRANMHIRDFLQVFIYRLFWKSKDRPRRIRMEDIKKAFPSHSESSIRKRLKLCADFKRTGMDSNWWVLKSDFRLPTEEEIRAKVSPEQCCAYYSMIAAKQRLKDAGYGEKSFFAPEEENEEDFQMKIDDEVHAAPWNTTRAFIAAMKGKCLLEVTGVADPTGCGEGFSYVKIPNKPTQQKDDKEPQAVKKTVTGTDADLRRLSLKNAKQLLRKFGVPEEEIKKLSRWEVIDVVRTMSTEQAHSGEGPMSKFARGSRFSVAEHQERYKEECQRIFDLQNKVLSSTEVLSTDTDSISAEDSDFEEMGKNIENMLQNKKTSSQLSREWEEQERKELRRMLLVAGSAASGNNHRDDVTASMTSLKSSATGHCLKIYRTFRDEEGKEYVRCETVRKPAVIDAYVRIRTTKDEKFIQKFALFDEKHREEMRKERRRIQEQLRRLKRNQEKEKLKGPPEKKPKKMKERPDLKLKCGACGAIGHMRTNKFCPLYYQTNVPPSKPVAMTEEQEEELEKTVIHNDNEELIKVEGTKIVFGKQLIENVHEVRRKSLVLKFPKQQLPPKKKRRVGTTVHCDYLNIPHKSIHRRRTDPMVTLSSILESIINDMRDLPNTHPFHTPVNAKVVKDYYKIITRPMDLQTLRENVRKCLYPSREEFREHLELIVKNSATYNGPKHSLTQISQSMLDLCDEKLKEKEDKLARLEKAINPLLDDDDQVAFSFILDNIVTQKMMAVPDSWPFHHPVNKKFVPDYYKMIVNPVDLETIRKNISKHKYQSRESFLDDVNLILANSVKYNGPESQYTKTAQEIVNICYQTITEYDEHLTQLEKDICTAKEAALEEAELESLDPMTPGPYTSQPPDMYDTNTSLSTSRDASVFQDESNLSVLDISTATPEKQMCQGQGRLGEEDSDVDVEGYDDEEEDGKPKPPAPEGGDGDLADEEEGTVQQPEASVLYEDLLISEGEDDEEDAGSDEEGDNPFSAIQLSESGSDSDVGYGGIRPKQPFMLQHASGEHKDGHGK

[33] = Oral bioavailability in rat; type: ADME, organism-based; conditions: in vivo
[34] = Unbound fraction in dog plasma; type: ADME, cell-free, Canis lupus familiaris
[35] = Unbound fraction in rat plasma; type: ADME, cell-free
[36] = Lipophilicity, log D of compound at pH 7.4; type: physicochemical; conditions: buffer
[37] = target: Histone acetyltransferase p300 (Homo sapiens, UniProt Q09472); experiment: Inhibition of human EP300 expressed in bacterial expression system
[38] = Plasma clearance in dog; type: ADME, Canis lupus familiaris
[39] = target: T3, Bromodomain-containing protein 4; experiment: Inhibition of human BRD4 bromodomain 2 expressed in bacterial expression system
[40] = Dissociation constant, basic pKa of compound; type: physicochemical

Row | Compound | GI50 [1] | IC50 [4] | hepatocyte CLint [8] | Vd [11] | IC50 [12] | Papp A→B [13] | solubility thermodynamic [15] | Ki [17] | hepatocyte CLint [18] | bioavailability [19] | Ki [21] | Ki [23] | clearance [24] | fraction unbound [25] | Vd [27] | hepatocyte CLint [30] | bioavailability [33] | fraction unbound [34] | fraction unbound [35] | logD [36] | also measured
1 | COc1nnc2ccc(N3CCC(c4ccc(OCCN5CCN(C)C(=O)[C@H]5C)cc4)CC3)nn12 [AZD-5153] | 5.01 nM | 12.6 nM | 5 µL/min/1e6 cells | 0.9 L/kg | 25.1 nM | 40 ×10⁻⁶ cm/s | 1600 to 1650 µM (≈ 767 to 791 µg/mL) | 5.01 nM | < 1 µL/min/1e6 cells | 55% | 158 nM | 126 nM | 4 mL/min/kg | 0.23 | 0.4 L/kg | 3.5 to 4 µL/min/1e6 cells | 81% | 0.24 | 0.04 | 2.3 | Ki [2]: 63.1 nM; Ki [3]: 2510 nM; Ki [5]: 50.1 nM; Ki [6]: 251 nM; Ki [7]: 1260 nM; inhibition in vivo at 10 mg/kg [9]: > 100%; Stability [10]: Stable; Activity [14]: 8%; Ki [16]: 398 nM; Ki [20]: 6310 nM; Ki [22]: 501 nM; IC50 [26]: 20 nM; Ki [28]: 100 nM; Ki [29]: 100 nM; Cp(f) [31]: <0.2 µM; Ki [32]: 2510 nM; Ki [37]: < 10000 nM; clearance [38]: 6 mL/min/kg; Ki [39]: 126 nM
2 | COc1nnc2ccc(N3CCC(c4ccc(OCCN5[C@H](C)CN(C(C)=O)C[C@@H]5C)cc4)CC3)nn12 | < 2 nM | < 2 nM | 13 µL/min/1e6 cells | 1.5 L/kg | 1.58 nM | 30 ×10⁻⁶ cm/s | > 1000 µM | 1.58 nM | 7 µL/min/1e6 cells | 28% | 15.8 nM | 50.1 nM | 17 mL/min/kg | 0.19 | 0.6 L/kg | 12 µL/min/1e6 cells | 40% | 0.16 | 0.06 | 2.5 | pKa [40]: 6.2; clearance [38]: 11 mL/min/kg
